Test results reported in US20200054657A1, “Compositions of Matter and Methoods to Treat Cancer” (priority 2018, published 2020).
“Also recorded” adds a separate entry of the source.

How the values were obtained:
[1] = system: AsPC-1 human pancreatic cancer cells; assay: viability of AsPC-1 pancreatic cancer cells; assay type: cell-based; conditions: for enhancing effect of Andrographolide on the response: in the presence of Andrographolide; for enhancing effect of Andrographolide on the response / reduction in viability: AsPC-1 (FIG. 6); for comparison of effects on cell viability / reduction in viability: single agents; for comparison of effects on cell viability: AsPC-1 (FIG. 5)
Procedure: Andrographolide at 1 mM and Frondoside A (between 1 mM and 3 mM) were assayed for anticancer effects on the viability of the two human pancreatic cancer cell lines, AsPC-1 and S2013.

[2] = system: HT29 human colonic cancer cells; assay: viability of HT29 colonic cancer cells; conditions: HT29 (FIG. 7); for enhancing effect of Andrographolide on the response: in the presence of Andrographolide; for reduction in viability: single agents
[3] = mice; cited from earlier work
[4] = lack of change in CBC, liver function tests, body weight; cited from earlier work
[5] = biological target: PAK-1 kinase (Homo sapiens, UniProt Q13153); conditions: in vitro; cited from earlier work
Sequence of PAK-1 kinase (Q13153 whole entry): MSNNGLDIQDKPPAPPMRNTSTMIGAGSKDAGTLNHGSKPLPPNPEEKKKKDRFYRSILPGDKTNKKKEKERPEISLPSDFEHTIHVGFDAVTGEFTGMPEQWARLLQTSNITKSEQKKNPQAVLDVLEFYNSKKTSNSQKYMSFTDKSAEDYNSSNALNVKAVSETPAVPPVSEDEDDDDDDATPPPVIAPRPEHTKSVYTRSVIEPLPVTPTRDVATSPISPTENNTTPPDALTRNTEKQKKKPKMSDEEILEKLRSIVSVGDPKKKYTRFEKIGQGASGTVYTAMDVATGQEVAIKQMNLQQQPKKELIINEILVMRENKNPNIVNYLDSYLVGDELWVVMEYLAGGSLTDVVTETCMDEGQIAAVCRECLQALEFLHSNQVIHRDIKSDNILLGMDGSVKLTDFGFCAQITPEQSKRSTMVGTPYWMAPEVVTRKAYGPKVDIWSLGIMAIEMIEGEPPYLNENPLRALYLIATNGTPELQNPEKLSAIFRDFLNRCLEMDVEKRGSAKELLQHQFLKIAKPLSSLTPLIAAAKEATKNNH

[6] = pharmacokinetics study by oral route, LC/MS/MS detection in the blood; assay type: in vivo, humans
Procedure: In a pharmacokinetics and pharmacodynamics study of Frondoside A by oral route in humans, as are known to those skilled in the arts, dosage of 10 milligrams of Frondoside A is delivered in an enteric coated gelatin capsule, as are known to those skilled in the arts and is detected by LC/MS/MS in the blood up to 20 hours later. In a pharmacokinetics and pharmacodynamics study in a huma of Frondoside A by oral route in humans, a dosage of 10 milligrams of Frondoside A in a capsule without the benefit of enteric coated capsule delivery, is not detected by LC/MS/MS in the blood up to 20 hours later.

[7] = LD50 in mice
[8] = system: CCRF-CEM; assay: viability of CCRF-CEM acute leukemia cells; assay type: cell-based; conditions: Homo sapiens, Andrographolide (50 μM) alone, read-out: cell viability
Procedure: (§1) FIG. 3. […] Andrographolide (50 μM) alone reduced cell viability to 54.3±2.8% in CCRF-CEM cells and to 68.5±1.4%. *** =P<0.001.
(§2) Andrographolide (50 μM) and Frondoside A (between 1 and 3 mM) was assayed for anticancer effects through determining cell viability of the two human, acute leukemia cell lines CCRF-CEM and THP-1. […] Andrographolide (50 μM) alone reduced cell viability to 54.3±2.8% in CCRF-CEM cells and to 68.5±1.4%. (FIG. 3)

[9] = system: THP-1; assay: viability of THP-1 acute leukemia cells; assay type: cell-based; conditions: Homo sapiens; Andrographolide (50 μM) alone; second cell line not named in the sentence (THP-1)
Procedure: as §1, §2

| Compound | enhancing effect of Andrographolide on the response [1] | comparison of effects on cell viability [1] | reduction in viability [1] | enhancing effect of Andrographolide on the response [2] | reduction in viability [2] | other results |
| --- | --- | --- | --- | --- | --- | --- |
| CCn1c(=O)c(-c2ccc(-c3cncs3)cc2Cl)cc2cnc(Nc3ccc(N4CCN(C)CC4)cc3)nc21 [FRAX597] | no enhancing effect; also recorded: tendency of the reduced effectiveness | less potent anti-cancer compounds | dose responsive reduction in viability | no enhancing effect; also recorded: tendency of the reduced effectiveness | modest dose responsive reduction in viability |  |
| CCn1c(=O)c(-c2ccc(-c3cncc(C)n3)cc2Cl)cc2cnc(NCCC3CCN(C)CC3)nc21 [FRAX1036] | no enhancing effect | less potent anti-cancer compounds | dose responsive reduction in viability | no enhancing effect | modest dose responsive reduction in viability |  |
| CO[C@@H]1[C@@H](O)[C@H](O[C@@H]2[C@@H](O)[C@H](O[C@H]3[C@H](O)[C@@H](O[C@@H]4OC[C@@H](O)[C@H](O)[C@H]4O)[C@H](O[C@H]4[C@H](OC5CC[C@]6(C)[C@H]7CCC89C(=O)O[C@@](C)(CCCC(C)C)C8[C@@H](OC(C)=O)C[C@@]9(C)C7=CC[C@H]6C5(C)C)OC[C@@H](OS(=O)(=O)[O-])[C@@H]4O)O[C@@H]3C)OC[C@H]2O)O[C@H](CO)[C@H]1O.[Na+] (stereo partly drawn) [Frondoside A] |  |  |  |  |  | LD50 [3]: 9.9 mg/kg; toxic effects at therapeutic doses [4]: does not have toxic effects at therapeutic doses; PAK-1 inhibition [5]: inhibitor of PAK-1 kinase; detected by LC/MS/MS in the blood up to 20 hours later ([6]; 10 milligrams in a capsule without enteric coating, human): not detected; detected by LC/MS/MS in the blood ([6]; 10 milligrams in an enteric coated gelatin capsule, humans): up to 20 hours; LD50 relative to the dose used therapeutically [7]: more than 1000 times |
| C=C1CC[C@@H]2[C@](C)(CO)[C@H](O)CC[C@@]2(C)[C@@H]1C/C=C1/C(=O)OC[C@H]1O [Andrographolide] |  |  |  |  |  | viability at 50 µM [8]: 54.3 ± 2.8%; viability at 50 µM [9]: 68.5 ± 1.4% |
